The source made the active and inactive calls. No rule for the calls is given here.
What was measured:
Assay in all cases: CXCR6 receptor antagonists, dose response, cell-based, beta-arrestin, DiscoveRx, APJ panel, uHTS hits (AID 624129)
[1] = biological target: C-C chemokine receptor type 6 (Homo sapiens) (UniProt P51684); conditions: CXCR6 beta-arrestin (DiscoveRx) antagonist cell assay
[2] = biological target: Apelin receptor (Homo sapiens) (UniProt P35414); conditions: CXCR6 beta-arrestin (DiscoveRx) antagonist cell assay, APJ
[3] = biological target: Beta-galactosidase (Escherichia coli) (UniProt Q8VNN2); conditions: CXCR6 beta-arrestin (DiscoveRx) antagonist cell assay, b-galactosidase
[4] = biological target: C-X-C chemokine receptor type 6 (Homo sapiens) (UniProt O00574); conditions: CXCR6 beta-arrestin (DiscoveRx) antagonist cell assay; for inhibition: CXCR6, run 1, dose range 2, at 80 µM (top of the series)
[5] = CCR6, dose range 1, mean IC50 across replicates
[6] = dose range 1, mean IC50 across replicates
[7] = CXCR6, dose range 1, mean IC50 across replicates

Chain of Beta-galactosidase (Escherichia coli) (Q8VNN2 whole entry, looked up): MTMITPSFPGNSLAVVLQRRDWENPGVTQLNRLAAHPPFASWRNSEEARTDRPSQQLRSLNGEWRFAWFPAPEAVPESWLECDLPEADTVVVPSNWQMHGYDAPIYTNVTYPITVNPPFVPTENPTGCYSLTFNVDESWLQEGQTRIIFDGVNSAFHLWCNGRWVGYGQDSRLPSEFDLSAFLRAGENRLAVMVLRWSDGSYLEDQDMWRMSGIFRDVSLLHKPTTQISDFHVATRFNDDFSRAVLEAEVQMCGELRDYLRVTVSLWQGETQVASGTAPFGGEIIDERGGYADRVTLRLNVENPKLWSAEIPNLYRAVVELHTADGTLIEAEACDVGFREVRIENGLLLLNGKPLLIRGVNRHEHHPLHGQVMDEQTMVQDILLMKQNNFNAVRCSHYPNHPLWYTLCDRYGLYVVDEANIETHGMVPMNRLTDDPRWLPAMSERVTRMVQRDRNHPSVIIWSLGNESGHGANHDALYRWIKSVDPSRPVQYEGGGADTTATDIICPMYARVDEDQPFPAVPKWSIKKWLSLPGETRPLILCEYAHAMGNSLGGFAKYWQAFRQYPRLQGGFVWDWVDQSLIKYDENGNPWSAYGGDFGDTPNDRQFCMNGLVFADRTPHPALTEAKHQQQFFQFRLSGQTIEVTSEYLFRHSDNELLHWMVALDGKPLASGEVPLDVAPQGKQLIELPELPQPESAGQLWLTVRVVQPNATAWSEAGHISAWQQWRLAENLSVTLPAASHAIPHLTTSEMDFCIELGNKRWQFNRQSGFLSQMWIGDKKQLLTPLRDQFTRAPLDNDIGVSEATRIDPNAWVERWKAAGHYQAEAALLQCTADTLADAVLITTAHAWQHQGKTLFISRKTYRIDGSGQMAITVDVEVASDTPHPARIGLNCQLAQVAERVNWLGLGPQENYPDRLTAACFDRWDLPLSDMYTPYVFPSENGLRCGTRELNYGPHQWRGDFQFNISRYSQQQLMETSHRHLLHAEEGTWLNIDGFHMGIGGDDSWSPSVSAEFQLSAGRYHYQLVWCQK
Chain of C-X-C chemokine receptor type 6 (Homo sapiens) (O00574 whole entry, looked up): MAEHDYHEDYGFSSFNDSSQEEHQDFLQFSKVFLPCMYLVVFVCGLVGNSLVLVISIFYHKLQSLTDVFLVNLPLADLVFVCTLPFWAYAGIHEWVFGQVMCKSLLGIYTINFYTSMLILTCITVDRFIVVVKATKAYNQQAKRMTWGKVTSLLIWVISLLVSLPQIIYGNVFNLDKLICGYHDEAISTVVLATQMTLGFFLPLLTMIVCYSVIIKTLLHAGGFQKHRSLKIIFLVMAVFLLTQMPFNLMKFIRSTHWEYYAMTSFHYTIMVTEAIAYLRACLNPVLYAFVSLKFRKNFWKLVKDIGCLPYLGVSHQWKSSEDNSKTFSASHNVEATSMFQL

Structure (SMILES) | IC50 ([1]; CCR6, dose range 1) [µM] | IC50 [1, 5] [µM] | IC50 ([1]; CCR6, run 2, dose range 1) [µM] | IC50 ([2]; dose range 1) [µM] | IC50 [2, 6] [µM] | IC50 ([2]; run 2, dose range 1) [µM] | IC50 ([2]; run 3, dose range 1) [µM] | IC50 ([3]; dose range 1) | IC50 [3, 6] [µM] | IC50 ([4]; CXCR6, dose range 1) | IC50 [4, 7] [µM] | IC50 ([4]; CXCR6, run 1, dose range 2) [µM] | IC50 ([4]; CXCR6, run 2, dose range 1) [µM] | IC50 ([4]; CXCR6, run 2, dose range 2) [µM] | inhibition [4] [%]
CN(CCO)c1cc(Sc2nc3ccccc3s2)c2nonc2c1[N+](=O)[O-] | 6 | 5.65 | 5.3 | 10.3 | 8.8 | 7.74 | 8.35 | 25.6 µM | 25.6 | 6.85 µM | 7.46 | 8.56 | 6.34 | 8.1 | –
O=C1C=CC(=O)N1c1ccccc1N1C(=O)C=CC1=O | – | > 80 | > 80 | – | > 80 | > 80 | > 80 | > 80 µM (inactive) | > 80 | > 80 µM (inactive) | > 80 | – | > 80 | – | 42.9
Cc1cccnc1Nc1nc(-c2ccccn2)cs1 | 0.955 | 1.22 | 1.48 | 1.2 | 1.38 | 1.82 | 1.13 | > 80 µM (inactive) | > 80 | 1.13 µM | 0.904 | 0.837 | 0.861 | 0.788 | –
O=[N+]([O-])c1c(Nc2ccc(O)cc2)cc(Cl)c2nonc12 | 1.62 | 1.74 | 1.85 | 6.33 | 8.66 | 4.41 | 15.2 | 35 µM | 35 | 1.78 µM | 2.71 | 3.01 | 3.41 | 2.65 | –
CS(=O)(=O)c1ncc(Cl)c(C(=O)Nc2ccc3ccccc3c2)n1 | – | 47.5 | 47.5 | 61.2 | 60.7 | 60.1 | > 80 | > 80 µM (inactive) | > 80 | > 80 µM (inactive) | > 80 | – | > 80 | – | 47.9
COc1ccc(/C=C/c2ccc3cccc(O)c3n2)c(OC)c1OC | 3.71 | 3.08 | 2.45 | 4.95 | 6.97 | 8.96 | 6.98 | > 80 µM (inactive) | > 80 | 5 µM | 4.12 | 3.43 | 5.18 | 2.88 | –
C/C(=N\NC(=O)Cn1c(-c2ccccn2)nc2ccccc21)c1ccccc1 | 13.7 | 16.2 | 18.7 | 23.9 | 21.3 | 16.1 | 23.9 | 34 µM | 34 | inactive | 18.4 | 9.71 | 29.4 | 8.43 | –
O=C1c2sc3nc4ccccc4n3c2C(=O)N1c1ccccc1Cl | 16.9 | 14.9 | 12.9 | 23.5 | 18 | 16.9 | 13.5 | 30.8 µM | 30.8 | inactive | 21 | – | 15 | – | 103
CC(=O)Nc1ccc(NC(=O)c2nc(S(=O)(=O)Cc3cccc(C)c3)ncc2Cl)cc1 | 6.61 | 5.6 | 4.59 | 7.19 | 8.89 | 10.8 | 8.71 | > 80 µM (inactive) | > 80 | – | 4.95 | – | 4.95 | – | 23.1
Cc1ccc(OCCn2c(NC(=O)c3ccco3)nc3ccccc32)cc1 | 4.28 | 3.98 | 3.68 | 11.3 | 10.3 | 8.87 | 10.8 | 32.8 µM | 32.8 | 6.41 µM | 6.79 | – | 7.16 | – | 146
FC(F)(F)c1cnc(NNC(=S)Nc2ccc(Cl)cc2)c(Cl)c1 | 10.9 | 10.5 | 10.1 | 12.3 | 12.6 | 17 | 8.55 | 40.5 µM | 40.5 | inactive | 12.1 | 7.71 | 14.5 | 14.1 | –
COc1ccc(C)c(-n2c(=O)n(Cc3ccccc3)c(=O)c3[nH]cnc32)c1 | 8.5 | 9.2 | 9.91 | 13.5 | 13.1 | 15.7 | 9.95 | 8.42 µM | 8.42 | inactive | 12.3 | 10.9 | 14 | 7.56 | –
O=[N+]([O-])c1ccc(S(=O)Cc2ccccc2)c([N+](=O)[O-])c1 (centres undefined) | – | > 80 | > 80 | – | > 80 | > 80 | > 80 | > 80 µM (inactive) | > 80 | > 80 µM (inactive) | > 80 | – | > 80 | – | -36.3
Cc1[nH][nH]c(=O)c1C(c1c(C)[nH][nH]c1=O)c1cn(Cc2ccc(Cl)c(Cl)c2)c2ccccc12 | 16.6 | 22.1 | 27.6 | 19.4 | 37 | 59.3 | 32.3 | > 80 µM (inactive) | > 80 | inactive | 26.6 | – | 24.8 | – | 115

Next, values leading:

IC50 ([1]; CCR6, dose range 1) [µM] | IC50 [1, 5] [µM] | IC50 ([1]; CCR6, run 2, dose range 1) [µM] | IC50 ([2]; dose range 1) [µM] | IC50 [2, 6] [µM] | IC50 ([2]; run 2, dose range 1) [µM] | IC50 ([2]; run 3, dose range 1) [µM] | IC50 ([3]; dose range 1) | IC50 [3, 6] [µM] | IC50 ([4]; CXCR6, dose range 1) | IC50 [4, 7] [µM] | IC50 ([4]; CXCR6, run 1, dose range 2) [µM] | IC50 ([4]; CXCR6, run 2, dose range 1) [µM] | IC50 ([4]; CXCR6, run 2, dose range 2) [µM] | inhibition [4] [%] | Structure (SMILES)
5.19 | 5.59 | 6 | 9 | 8.77 | 7.67 | 9.63 | > 80 µM (inactive) | > 80 | 6.64 µM | 6.29 | 6.49 | 6.24 | 5.8 | – | C=C1C(=O)C23C(O)C1CCC2C12CCCC(C)(COC(C)=O)C1C(O)C3(O)OC2 (centres undefined)
2.26 | 3.07 | 3.87 | 1.65 | 3.05 | 5.03 | 2.46 | > 80 µM (inactive) | > 80 | 8.69 µM | 6.31 | – | 3.94 | – | 121 | O=C1C=CC2(O[C@H](c3ccccc3)[C@@H](c3ccccc3)O2)[C@H](Sc2ccccc2O)C1
– | 40.4 | 40.4 | 45.8 | 45.8 | > 80 | > 80 | > 80 µM (inactive) | > 80 | inactive | 19.8 | 5.38 | > 80 | 14.1 | – | CCOc1cc(Br)c(Br)c(C=Nc2ccc(NC(C)=O)cc2)c1O
3.8 | 5.45 | 7.1 | 7.12 | 7.86 | 5.54 | 10.9 | > 80 µM (inactive) | > 80 | 11.5 µM | 8.28 | 5.14 | 8.56 | 7.92 | – | CC(C)(C)c1ccc(-n2nc(C#N)c(Cl)cc2=O)cc1
– | > 80 | > 80 | – | > 80 | > 80 | > 80 | > 80 µM (inactive) | > 80 | > 80 µM (inactive) | > 80 | – | > 80 | – | -36.2 | COc1ccc(NC(=O)/C(Cl)=C(/Cl)S(=O)Cc2ccc(Cl)cc2)cn1 (centres undefined)
3.92 | 3.98 | 4.05 | 8.04 | 7.02 | 6.89 | 6.14 | > 80 µM (inactive) | > 80 | 5.57 µM | 5.59 | 5.41 | 4.23 | 7.14 | – | COc1ccc(C[C@@H]2OC3(C=CC(=O)C=C3)O[C@H]2Cc2ccc(OC)cc2)cc1
– | > 80 | > 80 | – | > 80 | > 80 | > 80 | > 80 µM (inactive) | > 80 | > 80 µM (inactive) | > 80 | – | > 80 | – | -15.6 | CN(C(=O)CSC1=Nc2ccccc2C2=NC(c3ccccc3)C(=O)N12)C1CCCCC1 (centres undefined)
– | > 80 | > 80 | – | > 80 | > 80 | > 80 | > 80 µM (inactive) | > 80 | > 80 µM (inactive) | > 80 | – | > 80 | – | -8.52 | CCOC(=O)c1c(SCCN2CCCC2)n(-c2ccccc2)c(=S)n(-c2ccccc2)c1=O

From PubChem BioAssay AID624129 (Sanford-Burnham Center for Chemical Genomics, 2012)
